{
  "source": "patent US20060257861A1",
  "about": "(priority 2005, published 2006)",
  "assay_type_in_all_cases": "biochemical",
  "key": {"ACE1 [1]": {"tested_on": "ACE1"}, "ACE2": {"molecular_target": "T1, ACE2 (Mus musculus, UniProt Q8R0I0)", "T1 construct": "Kidney extract (source of ACE1 & ACE2); from tissue; host or cells: kidney extract", "T1 sequence (Q8R0I0 18-805)": "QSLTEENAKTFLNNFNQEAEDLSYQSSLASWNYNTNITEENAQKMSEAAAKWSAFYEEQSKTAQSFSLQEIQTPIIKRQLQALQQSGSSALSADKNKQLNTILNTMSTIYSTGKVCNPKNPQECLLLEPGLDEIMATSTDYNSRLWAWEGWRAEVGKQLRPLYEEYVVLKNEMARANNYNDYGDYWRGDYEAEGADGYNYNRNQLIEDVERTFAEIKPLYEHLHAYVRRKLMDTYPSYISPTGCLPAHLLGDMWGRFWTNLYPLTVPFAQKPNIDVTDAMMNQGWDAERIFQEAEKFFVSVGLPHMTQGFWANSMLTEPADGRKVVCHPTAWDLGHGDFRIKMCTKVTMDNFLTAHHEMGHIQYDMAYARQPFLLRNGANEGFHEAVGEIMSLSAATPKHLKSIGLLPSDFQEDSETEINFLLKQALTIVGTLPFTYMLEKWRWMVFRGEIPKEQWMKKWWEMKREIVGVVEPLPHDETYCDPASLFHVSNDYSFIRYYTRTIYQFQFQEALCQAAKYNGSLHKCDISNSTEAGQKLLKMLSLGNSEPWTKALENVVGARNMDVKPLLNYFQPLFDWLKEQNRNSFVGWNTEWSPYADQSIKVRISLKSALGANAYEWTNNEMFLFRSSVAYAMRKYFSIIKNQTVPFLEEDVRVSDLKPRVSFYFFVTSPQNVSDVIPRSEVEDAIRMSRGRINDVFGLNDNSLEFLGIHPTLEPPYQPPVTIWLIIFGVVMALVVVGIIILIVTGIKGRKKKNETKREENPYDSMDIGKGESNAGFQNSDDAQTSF", "assay": "SELDI-TOF-MS ACE assay, kidney extract incubated with AngI (ACE2 activity)", "conditions": "AngI + kidney extract + MLN 4760", "procedure": "FIG. 3: SELDI-TOF-MS ACE assay. Kidney extract (source of ACE1 & ACE2) were incubated with AngI A: kidney extract control; B: AngI; C: AngI+kidney extract, showing peptides generated from ACE1 & ACE2; D: AngI+kidney extract+MLN 4760 (ACE2 inhibitor)."}, "ACE1 [2]": {"tested_on": "ACE1", "remark": "listed apart in the source"}},
  "data": [
    {"smiles": "CC(C)C[C@H](N[C@@H](Cc1cncn1Cc1cc(Cl)cc(Cl)c1)C(=O)O)C(=O)O", "note": "[MLN 4760]", "values": [
      {"measurement": "effect on the formation of AngII", "setting": "ACE1 [1]", "result": "no effect"},
      {"measurement": "cleavage of AngI to Ang (1-7)", "setting": "ACE2", "result": "inhibited"},
      {"measurement": "AngII level", "setting": "ACE1 [2]", "result": "increased"},
      {"measurement": "effect on ACE1", "setting": "ACE1 [2]", "result": "without affecting ACE1"}
    ]}
  ]
}
